From US6146615A, “Contrast agents for image enhancement in magnetic resonance imaging” (priority 1999, dated 2000)
Entries after “also recorded” stand apart in the source; their conditions may differ.

How the values were obtained:
Muscle = test: T1-weighted MRI of tumor-bearing rats: percentage enhancement of muscle; format: in vivo, rat (inbred Copenhagen, male); details: 100 μmol agent/kg bw iv, muscle line below large tumor
Description: (§1) A T1 -weighted MRI examination (SE 400/15; SISCO SIS 85, 2 T) of the iron complex of ligand XI, Fe-DESAC, in rats (inbred Copenhagen, male, ca. 250 g bw) with implanted prostatic tumors (Dunning R3327, MAT/Lu) in the thigh muscles has been performed.
(§2) A T1 -weighted MRI examination (SE 400/15; SISCO SIS 85, 2 T) of three of these new MR contrast agents, the Fe(III) complexes of ligands XI, XVII and XXII in rats (inbred Copenhagen, male, ca. 250 g bw) with implanted prostatic tumors (Dunning R3327, MAT/Lu) in the thigh muscles was performed.

[1] = test system: implanted prostatic tumors (Dunning R3327, MAT/Lu); test: T1-weighted MRI of tumor-bearing rats: percentage enhancement of tumor; format: in vivo, rat (inbred Copenhagen, male)
Description: as §1
Thus, differentiation of tumor from surrounding muscle was straightforward with both contrast agents.
as §2

mice = details: metal chloride salts in aqueous solution, mice i.p.; cited from earlier work
liver and kidney [2] = test: MR imaging experiments on healthy rats: percent enhancement of liver and kidney; format: in vivo, rat (female Fischer 344); details: 0.10 mmol/kg, tail vein, FIG. 1
Description: Animal studies were performed with a 1.5-T superconducting MR unit (Signa. GE Medical Systems) using a send-and-receive head coil containing two anesthetized female Fischer 344 rats. After a localizer image were obtained, a spin-echo pulse sequence were used with a 256×256 matrix (three signals acquired) over a 20-cm field of view with a thickness of 3 mm and a 1.5-mm intersection gap. The pulse sequence parameters were TR =300 ms and TE =20 ms. Sagittal images were collected before administration of the contrast agent, and after administration, five more images were collected. Operator defined region-of-interest (ROI) measurements were made upon the organs under study for the pre- and postcontrast images. ROI measurements were recorded for the liver and kidney. For the liver, three slices were studied and for the kidneys, a single slice through each kidney was studied.
Percent enhancement was calculated by the following equation: [formula]
Female Fischer 334 rats were used in the imaging experiments. The subjects were weighed and anesthetized with 65 mg/kg pentobarbital. The preinjection pulse sequence was performed, then the contrast agent was administered. The concentration used was 0.10 mmollkg with an injection volume of 0.5 mL used throughout, administered over a time range of approximately three minutes. […]

liver and kidney [3] = details: over the same time period as FIG. 1; Davies et al. 1996, U.S. Pat. No. 5,494,656; cited from earlier work

## O=C([O-])CN(CCN(CC(=O)[O-])CC(=O)O)CCN(CC(=O)[O-])CC(=O)O.[Gd+3] [Gd-DTPA, gadolinium ion chelated with the ligand diethylenetriaminepentaacetic acid]
Muscle; 1 hr post contrast
  Percentage enhancement, muscle (large, necrotic tumor), 1 hr: +10 ± 6%
Muscle; 24 hr post contrast
  Percentage enhancement, muscle (large, necrotic tumor), 24 hr: -4 ± 2%
[1]; 100 μmol agent/kg bw iv, 1 hr post contrast
  Percentage enhancement, large, necrotic tumor, 1 hr: +52 ± 14%
[1]; 100 μmol agent/kg bw iv, 24 hr post contrast
  Percentage enhancement, large, necrotic tumor, 24 hr: -11 ± 8%
[1]; large (almost completely necrotic) tumor, 24 hr post contrast
  enhancement of necrotic tumor tissue: no such enhancement was found with Gd-DTPA; also recorded: no significant enhancement of tumor
[1]; single iv application
  differentiation of tumor from surrounding muscle: straightforward
[1]; single iv application, 3 hr post contrast
  tumor enhancement, 3 hr: significant tumor enhancement

## [Gd] [gadolinium]
mice
  LD50: 1.4 mmol/kg

## [Mn+2] [manganese]
mice
  LD50: 1.5 mmol/kg

## Fe(III) tris(tironate)
Liver and kidney [2]
  liver-specificity: does not show this tissue specificity
Liver and kidney [3]
  liver enhancement: ≤ 15%

## iron
mice
  LD50: 1.6 mmol/kg
